The record followed here is US6677347B2, “Sulfonamido ether substituted imidazoquinolines” (3M Innovative Properties Company, priority 2000, dated 2004).

One test has as its system interferon (α). Put plainly: Cytokine Induction in Human Cells: interferon (α) by ELISA. In kind it is cell-based. Also on record: key to Lowest Effective Concentration (μM) Interferon: *: no induction was seen at any of the tested concentrations; generally the highest concentration tested was 10 or 30 μM. The note with it: human PBMC, 18 to 24 hours incubation, lowest concentration found to induce interferon. The source says: (§1) An in vitro human blood cell system is used to assess cytokine induction. Activity is based on the measurement of interferon and tumor necrosis factor (α) (IFN and TNF, respectively) secreted into culture media as described by Testerman et. al. In “Cytokine Induction by the Immunomodulators Imiquimod and S-27609”, Journal of Leukocyte Biology, 58, 365-372 (September, 1995).
(§2) Whole blood from healthy human donors is collected by venipuncture into EDTA vacutainer tubes. Peripheral blood mononuclear cells (PBMC) are separated from whole blood by density gradient centrifugation using Histopaque®-1077. Blood is diluted 1:1 with Dulbecco's Phosphate Buffered Saline (DPBS) or Hank's Balanced Salts Solution (HBSS). The PBMC layer is collected and washed twice with DPBS or HBSS and resuspended at 4×10^6 cells/mL in RPMI complete. The PBMC suspension is added to 48 well flat bottom sterile tissue culture plates (Costar, Cambridge, Mass. or Becton Dickinson Labware, Lincoln Park, N.J.) containing an equal volume of RPMI complete media containing test compound.
(§3) The compounds are solubilized in dimethyl sulfoxide (DMSO). The DMSO concentration should not exceed a final concentration of 1% for addition to the culture wells. The compounds are generally tested at concentrations ranging from 30-0.014 μM.
(§4) The solution of test compound is added at 60 μM to the first well containing RPMI complete and serial 3 fold dilutions are made in the wells. The PBMC suspension is then added to the wells in an equal volume, bringing the test compound concentrations to the desired range (30-0.014 μM). The final concentration of PBMC suspension is 2×10^6 cells/mL. The plates are covered with sterile plastic lids, mixed gently and then incubated for 18 to 24 hours at 37° C. in a 5% carbon dioxide atmosphere.
(§5) Following incubation the plates are centrifuged for 10 minutes at 1000 rpm (˜200×g) at 4° C. The cell-free culture supernatant is removed with a sterile polypropylene pipet and transferred to sterile polypropylene tubes. Samples are maintained at −30 to −70° C. until analysis. The samples are analyzed for interferon (α) by ELISA and for tumor necrosis factor (α) by ELISA or IGEN Assay
Interferon (α) concentration is determined by ELISA using a Human Multi-Species kit from PBL Biomedical Laboratories, New Brunswick, N.J. Results are expressed in pg/mL.
(§6) The table below lists the lowest concentration found to induce interferon and the lowest concentration found to induce tumor necrosis factor for each compound.
For orientation: An ELISA detects its analyte on a solid surface through an enzyme-linked reagent.

For test [1], the system named is tumor necrosis factor (α). Put plainly: Cytokine Induction in Human Cells: tumor necrosis factor (α) by ELISA or IGEN assay. The format is cell-based. Set-up: key to Lowest Effective Concentration (μM) Tumor Necrosis Factor: *: no induction was seen at any of the tested concentrations; generally the highest concentration tested was 10 or 30 μM. The following applies: human PBMC, 18 to 24 hours incubation, lowest concentration found to induce tumor necrosis factor.
Description: as §1, §2, §3, §4, §5
Tumor necrosis factor (α) (TNF) concentration is determined using ELISA kits available from Biosource International, Camarillo, Calif. Alternately, the TNF concentration can be determined by Origen® M-Series Immunoassay and read on an IGEN M-8 analyzer from IGEN International, Gaithersburg, Md. The immunoassay uses a human TNF capture and detection antibody pair from Biosource International, Camarillo, Calif. Results are expressed in pg/mL.
as §6

`CCC(COCCC1CCN(S(=O)(=O)N(C)C)CC1)n1cnc2c(N)nc3ccccc3c21` (stereo not shown) [Example 28]: the values for the minimal effective concentration (in the test with interferon (α); in test [1]) were 0.1 µM and 1 µM, respectively.

For the compound `CCC(COCCC1CCN(S(=O)(=O)C(C)C)CC1)n1cnc2c(N)nc3ccccc3c21` (stereo not shown) [Example 27], the minimal effective concentration in the test with interferon (α) worked out at 0.1 µM; in test [1], 1 µM.

Turning to `CS(=O)(=O)c1ccc(S(=O)(=O)NCCOCCn2cnc3c(N)nc4ccccc4c32)cc1` [Example 48], the “Lowest Effective Concentration (μM) Interferon” value with interferon (α) is on record as “*”. Further, the minimal effective concentration in test [1] worked out at 10 µM.

As to `CCC(COCCC1CCN(S(=O)(=O)c2cccc(C#N)c2)CC1)n1cnc2c(N)nc3ccccc3c21` (stereo not shown) [Example 33], the minimal effective concentration (with interferon (α); in test [1]) was 1 µM throughout.

For the compound `CCCCc1nc2c(N)nc3ccccc3c2n1CCOCCNS(=O)(=O)c1cccc2cccnc12` [Example 20], the minimal effective concentration amounted to 1 µM in the test with interferon (α) and 10 µM in test [1].

For the compound `CCCCc1nc2c(N)nc3ccccc3c2n1CCOCCNS(=O)(=O)c1ccc(-c2ccccc2)cc1` [Example 22], the minimal effective concentration with interferon (α) came to 0.0001 µM; in test [1] it was 10 µM.

In the case of `CCCCc1nc2c(N)nc3ccccc3c2n1CCOCCNS(=O)(=O)c1cccc2ccccc12` [Example 18], the “Lowest Effective Concentration (μM) Interferon” value in the test with interferon (α) is on record as “*”. Further, the minimal effective concentration in test [1] came to 10 µM.

In the case of `CCCCc1nc2c(N)nc3ccccc3c2n1CCOCCNS(=O)(=O)c1ccc(OC(F)(F)F)cc1` [Example 24], the values for the minimal effective concentration (with interferon (α); in test [1]) were 0.0001 µM and 10 µM, respectively.

In the case of `CCCCc1nc2c(N)nc3ccccc3c2n1CCOCCNS(=O)(=O)c1ccc(C#N)cc1` [Example 14], the minimal effective concentration came to 1 µM in the test with interferon (α) and 10 µM in test [1].

For the compound `CCCCc1nc2c(N)nc3ccccc3c2n1CCOCCNS(=O)(=O)CCCC` [Example 9], the figures for the minimal effective concentration (in the test with interferon (α); in test [1]) were 0.1 µM and 1 µM, respectively.

For the compound `CCCCc1nc2c(N)nc3ccccc3c2n1CCOCCNS(=O)(=O)C[C@@]12CC[C@@H](CC1=O)C2(C)C` [Example 26], the minimal effective concentration in the test with interferon (α) came out at 0.01 µM; in test [1] it was 10 µM.

Regarding `Nc1nc2ccccc2c2c1ncn2CCOCCNS(=O)(=O)c1ccc(C(F)(F)F)cc1` [Example 46], in the test with interferon (α), the “Lowest Effective Concentration (μM) Interferon” value is reported as “*”. Moreover, the “Lowest Effective Concentration (μM) Tumor Necrosis Factor” value in test [1] is listed as “*”.

`CCCCc1nc2c(N)nc3ccccc3c2n1CCOCCNS(=O)(=O)CC` [Example 6]: the minimal effective concentration in the test with interferon (α) is 0.001 µM; in test [1] it was 1 µM.

Consider `CCCCc1nc2c(N)nc3ccccc3c2n1CCOCCNS(=O)(=O)c1cccs1` [Example 11], for which the values for the minimal effective concentration (in the test on interferon (α); in test [1]) were 1 µM and 10 µM, respectively.

For the compound `Nc1nc2ccccc2c2c1ncn2CCOCCNS(=O)(=O)c1ccc(-c2ccccc2)cc1` [Example 47], the “Lowest Effective Concentration (μM) Interferon” value in the test with interferon (α) is on record as “*”. In addition, the “Lowest Effective Concentration (μM) Tumor Necrosis Factor” value in test [1] is “*”.

As to `CCC(COCCC1CCN(S(=O)(=O)c2ccc(/N=N/c3ccc(N(C)C)cc3)cc2)CC1)n1cnc2c(N)nc3ccccc3c21` (stereo not shown) [Example 39], the minimal effective concentration in the test on interferon (α) was determined as 1 µM. Also, in test [1], the “Lowest Effective Concentration (μM) Tumor Necrosis Factor” value is “*”.

`CCCCc1nc2c(N)nc3ccccc3c2n1CCOCCNS(=O)(=O)c1ccccc1` [Example 10]: the results for the minimal effective concentration (with interferon (α); in test [1]) were 1 µM and 10 µM, respectively.

In the case of `CCCCc1nc2c(N)nc3ccccc3c2n1CCOCCNS(=O)(=O)N(C)C` [Example 8], the minimal effective concentration came to 0.01 µM in the test on interferon (α) and 1 µM in test [1].

Turning to `Nc1nc2ccccc2c2c1ncn2CCOCCNS(=O)(=O)c1ccc(OC(F)(F)F)cc1` [Example 49], in the test with interferon (α), the “Lowest Effective Concentration (μM) Interferon” value is “*”. Also, the minimal effective concentration in test [1] is 10 µM.

In the case of `CCC(COCCC1CCN(S(=O)(=O)c2ccc(OC(F)(F)F)cc2)CC1)n1cnc2c(N)nc3ccccc3c21` (stereo not shown) [Example 38], the “Lowest Effective Concentration (μM) Interferon” value in the test on interferon (α) is given as “*”. Besides, the “Lowest Effective Concentration (μM) Tumor Necrosis Factor” value in test [1] is recorded as “*”.

As to `COc1ccc(S(=O)(=O)NCCOCCn2cnc3c(N)nc4ccccc4c32)cc1` [Example 43], the minimal effective concentration (in the test on interferon (α); in test [1]) was 10 µM each time.

Turning to `Nc1nc2ccccc2c2c1ncn2CCOCCNS(=O)(=O)c1cccc(F)c1` [Example 42], the figures for the minimal effective concentration (with interferon (α); in test [1]) were 10 µM and 1 µM, respectively.

Consider `CCCCc1nc2c(N)nc3ccccc3c2n1CCOCCNS(=O)(=O)Cc1ccccc1` [Example 12], for which the minimal effective concentration stood at 0.1 µM with interferon (α) and 10 µM in test [1].

With `CCC(COCCC1CCN(S(=O)(=O)c2ccc(S(C)(=O)=O)cc2)CC1)n1cnc2c(N)nc3ccccc3c21` (stereo not shown) [Example 37], the minimal effective concentration was 0.1 µM with interferon (α) and 1 µM in test [1].

With `CCCCc1nc2c(N)nc3ccccc3c2n1CCOCCNS(=O)(=O)c1ccc(C(F)(F)F)cc1` [Example 21], the minimal effective concentration (with interferon (α); in test [1]) was 10 µM throughout.

`CCC(COCCC1CCN(S(=O)(=O)c2ccccc2)CC1)n1cnc2c(N)nc3ccccc3c21` (stereo not shown) [Example 30]: the minimal effective concentration with interferon (α) stood at 1 µM; in test [1], 10 µM.

With `Nc1nc2ccccc2c2c1ncn2CCOCCNS(=O)(=O)c1ccccc1` [Example 41], the minimal effective concentration with interferon (α) amounted to 10 µM; in test [1], 1 µM.

With `CCCCc1nc2c(N)nc3ccccc3c2n1CCOCCNS(=O)(=O)c1cccc(C#N)c1` [Example 15], the minimal effective concentration (with interferon (α); in test [1]) was 10 µM in each case.

Take `CCC(COCCC1CCN(S(=O)(=O)c2cccc(F)c2)CC1)n1cnc2c(N)nc3ccccc3c21` (stereo not shown) [Example 32]: the minimal effective concentration (with interferon (α); in test [1]) was 1 µM each time.

For `Cc1nc2c(N)nc3ccccc3c2n1CCCOCCOCCCNS(=O)(=O)c1cccc2c(N(C)C)cccc12` [Example 50, N-[10-(4-amino-2-methyl-1H-imidazo[4,5-c]quinolin-1-yl)-4,7-dioxadecyl]-5-dimethylaminonaphthalene-1-sulfonamide], in the test with interferon (α), the minimal effective concentration was 1.11 µM. Further, in test [1], the “Lowest Effective Concentration (μM) Tumor Necrosis Factor” value is given as “*”.

With `Nc1nc2ccccc2c2c1ncn2CCOCCNS(=O)(=O)c1ccc2ccccc2c1` [Example 45], in the test with interferon (α), the “Lowest Effective Concentration (μM) Interferon” value was “*”. Also, the “Lowest Effective Concentration (μM) Tumor Necrosis Factor” value in test [1] is reported as “*”.

`CCC(COCCC1CCN(S(=O)(=O)c2ccc(F)cc2F)CC1)n1cnc2c(N)nc3ccccc3c21` (stereo not shown) [Example 35]: the minimal effective concentration (in the test with interferon (α); in test [1]) was 1 µM each time.

For the compound `CCC(COCCC1CCN(S(=O)(=O)c2cccs2)CC1)n1cnc2c(N)nc3ccccc3c21` (stereo not shown) [Example 31], the minimal effective concentration came out at 1 µM in the test with interferon (α) and 10 µM in test [1].

Take `CCCCS(=O)(=O)N1CCC(CCOCC(CC)n2cnc3c(N)nc4ccccc4c32)CC1` (stereo not shown) [Example 29]: the results for the minimal effective concentration (with interferon (α); in test [1]) were 1 µM and 10 µM, respectively.

As for `CCC(COCCC1CCN(S(=O)(=O)c2ccc(OC)cc2)CC1)n1cnc2c(N)nc3ccccc3c21` (stereo not shown) [Example 34], the minimal effective concentration (in the test with interferon (α); in test [1]) was 1 µM throughout.

One may read the minimal effective concentration as the smallest amount tested that counted as effective.
